Where “and” joins values, the source holds several entries; their conditions need not be identical. Equal values may be shown once. Inconclusive results and toxic doses are left out. Rule for the calls: active = survival T/C of 150% or more; inactive = T/C below 125% in these data.
System: CD2F1 mice, L1210 leukemia ip, survival T/C
Test: NCI In Vivo Anticancer Drug Screen. Data for tumor model L1210 Leukemia (intraperitoneal) in CD2F1 (CDF1) mice
Details: higher = longer survival
How it was run: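 Each value reflects a quotient of treated over vehicle control outcomes in mice with a transplanted tumor.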

[1] = endpoint: mean survival time, dose: 50.0 mg/kg/injection, schedule: Q01DX005 (ip), vehicle: water
[2] = endpoint: mean survival time, dose: 12.5 mg/kg/injection, schedule: Q01DX005 (ip), vehicle: distilled water + Tween-80
[3] = endpoint: mean survival time, dose: 25.0 mg/kg/injection, schedule: Q01DX005 (ip), vehicle: distilled water + Tween-80
[4] = endpoint: mean survival time, dose: 50.0 mg/kg/injection, schedule: Q01DX005 (ip), vehicle: distilled water + Tween-80
[5] = endpoint: mean survival time, dose: 100.0 mg/kg/injection, schedule: Q01DX005 (ip), vehicle: distilled water + Tween-80
[6] = endpoint: mean survival time, dose: 200.0 mg/kg/injection, schedule: Q01DX005 (ip), vehicle: distilled water + Tween-80
[7] = endpoint: mean survival time, dose: 50.0 mg/kg/injection, schedule: Q04DX003 (ip), vehicle: saline
[8] = endpoint: mean survival time, dose: 100.0 mg/kg/injection, schedule: Q04DX003 (ip), vehicle: saline
[9] = endpoint: mean survival time, dose: 200.0 mg/kg/injection, schedule: Q04DX003 (ip), vehicle: saline
[10] = endpoint: mean survival time, dose: 100.0 mg/kg/injection, schedule: Q01DX009 (ip), vehicle: saline with Tween-80
[11] = endpoint: mean survival time, dose: 200.0 mg/kg/injection, schedule: Q01DX009 (ip), vehicle: saline with Tween-80
[12] = endpoint: mean survival time, dose: 400.0 mg/kg/injection, schedule: Q01DX009 (ip), vehicle: saline with Tween-80
[13] = endpoint: mean survival time, dose: 50.0 mg/kg/injection, schedule: Q01DX009 (ip), vehicle: saline with Tween-80
[14] = endpoint: mean survival time, dose: 100.0 mg/kg/injection, schedule: Q04DX003 (ip), vehicle: saline with Tween-80
[15] = endpoint: mean survival time, dose: 200.0 mg/kg/injection, schedule: Q04DX003 (ip), vehicle: saline with Tween-80
[16] = endpoint: mean survival time, dose: 400.0 mg/kg/injection, schedule: Q04DX003 (ip), vehicle: saline with Tween-80
[17] = endpoint: mean survival time, dose: 25.0 mg/kg/injection, schedule: Q01DX009 (ip), vehicle: saline with Tween-80

Measured: T/C

COc1cc(N)c2nc(C(O)C(O)C(O)CO)cnc2c1 (stereo not drawn)
inactive: endpoint: median survival time, dose: 12.5 mg/kg/injection, schedule: Q01DX005 (ip), vehicle: distilled water + Tween-80 98 % of control | endpoint: median survival time, dose: 25.0 mg/kg/injection, schedule: Q01DX005 (ip), vehicle: distilled water + Tween-80 90 % of control | endpoint: median survival time, dose: 50.0 mg/kg/injection, schedule: Q01DX005 (ip), vehicle: distilled water + Tween-80 89 % of control | endpoint: median survival time, dose: 100.0 mg/kg/injection, schedule: Q01DX005 (ip), vehicle: distilled water + Tween-80 92 % of control | endpoint: median survival time, dose: 200.0 mg/kg/injection, schedule: Q01DX005 (ip), vehicle: distilled water + Tween-80 95 % of control

CSc1ncnc2c1ccn2C1OC(COP(=O)(O)O)C(O)C1O (stereo not drawn)
inactive: endpoint: mean survival time, dose: 12.5 mg/kg/injection, schedule: Q01DX005 (ip), vehicle: water 105 % of control | endpoint: mean survival time, dose: 25.0 mg/kg/injection, schedule: Q01DX005 (ip), vehicle: water 108 % of control and 111 % of control | [1] 114 % of control and 109 % of control | endpoint: mean survival time, dose: 150.0 mg/kg/injection, schedule: Q01DX005 (ip), vehicle: water 121 % of control

Cc1ccc(Sc2ncnc3c2ncn3C2OC(CO)C(O)C2O)cc1 (stereo not drawn)
inactive: [2] 96 % of control | [3] 90 % of control | [4] 94 % of control | [5] 90 % of control | [6] 94 % of control

CC(C)=NNc1cc(N)nc2c1ncn2C1OC(CO)C(O)C1O (stereo not drawn)
inactive: [1] 90 % of control | endpoint: mean survival time, dose: 100.0 mg/kg/injection, schedule: Q01DX005 (ip), vehicle: water 94 % of control | endpoint: mean survival time, dose: 200.0 mg/kg/injection, schedule: Q01DX005 (ip), vehicle: water 104 % of control

CCC(CC(=O)O)c1ccccc1 (stereo not drawn)
inactive: [7] 96 % of control | [8] 100 % of control | [9] 102 % of control

COC(=O)C(I)C(OC)c1ccccc1 (stereo not drawn)
inactive: [10] 107 % of control | [11] 100 % of control | [12] 97 % of control

CCC1(CC)C(=O)C=CNC1=O
inactive: [13] 100 % of control | [10] 94 % of control | [11] 103 % of control

CCOC(=O)C(=C=[N-])[n+]1ccc(C)cc1
inactive: endpoint: mean survival time, dose: 6.25 mg/kg/injection, schedule: Q01DX001 (ip), vehicle: saline sonified 101 % of control | endpoint: mean survival time, dose: 6.25 mg/kg/injection, schedule: Q01DX009 (ip), vehicle: saline sonified 94 % of control | endpoint: mean survival time, dose: 12.5 mg/kg/injection, schedule: Q01DX001 (ip), vehicle: saline sonified 103 % of control | endpoint: mean survival time, dose: 12.5 mg/kg/injection, schedule: Q01DX009 (ip), vehicle: saline sonified 94 % of control | endpoint: mean survival time, dose: 25.0 mg/kg/injection, schedule: Q01DX001 (ip), vehicle: saline sonified 103 % of control | endpoint: mean survival time, dose: 25.0 mg/kg/injection, schedule: Q01DX009 (ip), vehicle: saline sonified 89 % of control

CCOC(=O)C1CNC(=O)C1=O (stereo not drawn)
inactive: endpoint: mean survival time, dose: 100.0 mg/kg/injection, schedule: Q01DX001 (ip), vehicle: saline 106 % of control | [14] 100 % of control | endpoint: mean survival time, dose: 200.0 mg/kg/injection, schedule: Q01DX001 (ip), vehicle: saline 110 % of control | [15] 101 % of control | endpoint: mean survival time, dose: 400.0 mg/kg/injection, schedule: Q01DX001 (ip), vehicle: saline 106 % of control | [16] 95 % of control

COc1cc([N+](=O)[O-])ccc1P(=O)(O)O
inactive: [7] 101 % of control | [8] 97 % of control | [9] 91 % of control

Cc1ccc(S(=O)(=O)N/N=C/c2ccc(O)c(O)c2)cc1
inactive: endpoint: mean survival time, dose: 12.5 mg/kg/injection, schedule: Q04DX003 (ip), vehicle: other 101 % of control | endpoint: mean survival time, dose: 25.0 mg/kg/injection, schedule: Q04DX003 (ip), vehicle: other 98 % of control | endpoint: mean survival time, dose: 50.0 mg/kg/injection, schedule: Q04DX003 (ip), vehicle: other 101 % of control | endpoint: mean survival time, dose: 100.0 mg/kg/injection, schedule: Q04DX003 (ip), vehicle: other 101 % of control | endpoint: mean survival time, dose: 200.0 mg/kg/injection, schedule: Q04DX003 (ip), vehicle: other 95 % of control | endpoint: mean survival time, dose: 400.0 mg/kg/injection, schedule: Q04DX003 (ip), vehicle: other 101 % of control

CC(=O)OC1CCC2(C)C(=CCC3C4CC(C=O)=C(Cl)NC4(C)CCC32)C1 (stereo not drawn)
inactive: endpoint: mean survival time, dose: 25.0 mg/kg/injection, schedule: Q01DX001 (ip), vehicle: saline with Tween-80 98 % of control | endpoint: mean survival time, dose: 50.0 mg/kg/injection, schedule: Q01DX001 (ip), vehicle: saline with Tween-80 95 % of control | endpoint: mean survival time, dose: 100.0 mg/kg/injection, schedule: Q01DX001 (ip), vehicle: saline with Tween-80 92 % of control and 101 % of control | endpoint: mean survival time, dose: 400.0 mg/kg/injection, schedule: Q01DX001 (ip), vehicle: saline with Tween-80 87 % of control

O/N=C\c1ccc2c(c1)OCCO2
inactive: endpoint: mean survival time, dose: 37.5 mg/kg/injection, schedule: Q01DX009 (ip), vehicle: saline 97 % of control | endpoint: mean survival time, dose: 75.0 mg/kg/injection, schedule: Q01DX009 (ip), vehicle: saline 103 % of control | endpoint: mean survival time, dose: 75.0 mg/kg/injection, schedule: Q04DX003 (ip), vehicle: saline 112 % of control | endpoint: mean survival time, dose: 150.0 mg/kg/injection, schedule: Q01DX009 (ip), vehicle: saline 100 % of control | endpoint: mean survival time, dose: 150.0 mg/kg/injection, schedule: Q04DX003 (ip), vehicle: saline 100 % of control | endpoint: mean survival time, dose: 300.0 mg/kg/injection, schedule: Q04DX003 (ip), vehicle: saline 100 % of control

C[CH2][Ge]([CH2]C)[CH2]C.C[CH2][Ge]([CH2]C)[CH2]C.C[CH2][Ge]([CH2]C)[O][Ge]([CH2]C)[CH2]C
inactive: endpoint: mean survival time, dose: 6.25 mg/kg/injection, schedule: Q01DX009 (ip), vehicle: saline with Tween-80 97 % of control and 106 % of control | endpoint: mean survival time, dose: 12.5 mg/kg/injection, schedule: Q01DX009 (ip), vehicle: saline with Tween-80 96 % of control and 104 % of control | [17] 97 % of control and 112 % of control | [13] 104 % of control and 112 % of control | [10] 109 % of control

O=C(O)C1C=CC(C(=O)O)c2ccccc21 (stereo not drawn)
inactive: endpoint: mean survival time, dose: 100.0 mg/kg/injection, schedule: Q01DX001 (ip), vehicle: Klucel (hydroxypropylcellulose) (HPC) 91 % of control | endpoint: mean survival time, dose: 200.0 mg/kg/injection, schedule: Q01DX001 (ip), vehicle: Klucel (hydroxypropylcellulose) (HPC) 90 % of control | endpoint: mean survival time, dose: 400.0 mg/kg/injection, schedule: Q01DX001 (ip), vehicle: Klucel (hydroxypropylcellulose) (HPC) 91 % of control

N#CC(C#N)=c1ccc(=C(C#N)C#N)cc1
inactive: [14] 98 % of control

Cn1sc2ccccc2c1=S
inactive: [14] 101 % of control | [15] 96 % of control | [16] 95 % of control

Nc1ncnc2c1[nH]c(=O)n2C1OC(CO)C2OC21 (stereo not drawn)
inactive: [2] 102 % of control | [3] 95 % of control | [4] 101 % of control | [5] 92 % of control | [6] 95 % of control

CCCCCCCCCc1ccc(OCCOCCOCCOCCOCCOCCOCCOCCOCCOC(C)N2CCCC2=O)cc1 (stereo not drawn)
inactive: [17] 96 % of control | endpoint: mean survival time, dose: 50.0 mg/kg/injection, schedule: Q04DX003 (ip), vehicle: saline with Tween-80 108 % of control | [14] 93 % of control

CCCCCCCCCCCSCCCCCCCCCCC
inactive: [10] 104 % of control | [14] 98 % of control | [11] 103 % of control | [15] 101 % of control | [12] 103 % of control | [16] 98 % of control
